# Values of other authors as cited in patent US20130007910A1, “STRUCTURE OF THE BRASS[…] BRI1, AND MODULATION OF BRI1 SIGNALING” (Salk Institute for Biological Studies (027731), priority 2011, published 2013).
# Molecular target: T1, BRI1 (Arabidopsis thaliana, UniProt O22476)
# T1 sequence (O22476 24-1196): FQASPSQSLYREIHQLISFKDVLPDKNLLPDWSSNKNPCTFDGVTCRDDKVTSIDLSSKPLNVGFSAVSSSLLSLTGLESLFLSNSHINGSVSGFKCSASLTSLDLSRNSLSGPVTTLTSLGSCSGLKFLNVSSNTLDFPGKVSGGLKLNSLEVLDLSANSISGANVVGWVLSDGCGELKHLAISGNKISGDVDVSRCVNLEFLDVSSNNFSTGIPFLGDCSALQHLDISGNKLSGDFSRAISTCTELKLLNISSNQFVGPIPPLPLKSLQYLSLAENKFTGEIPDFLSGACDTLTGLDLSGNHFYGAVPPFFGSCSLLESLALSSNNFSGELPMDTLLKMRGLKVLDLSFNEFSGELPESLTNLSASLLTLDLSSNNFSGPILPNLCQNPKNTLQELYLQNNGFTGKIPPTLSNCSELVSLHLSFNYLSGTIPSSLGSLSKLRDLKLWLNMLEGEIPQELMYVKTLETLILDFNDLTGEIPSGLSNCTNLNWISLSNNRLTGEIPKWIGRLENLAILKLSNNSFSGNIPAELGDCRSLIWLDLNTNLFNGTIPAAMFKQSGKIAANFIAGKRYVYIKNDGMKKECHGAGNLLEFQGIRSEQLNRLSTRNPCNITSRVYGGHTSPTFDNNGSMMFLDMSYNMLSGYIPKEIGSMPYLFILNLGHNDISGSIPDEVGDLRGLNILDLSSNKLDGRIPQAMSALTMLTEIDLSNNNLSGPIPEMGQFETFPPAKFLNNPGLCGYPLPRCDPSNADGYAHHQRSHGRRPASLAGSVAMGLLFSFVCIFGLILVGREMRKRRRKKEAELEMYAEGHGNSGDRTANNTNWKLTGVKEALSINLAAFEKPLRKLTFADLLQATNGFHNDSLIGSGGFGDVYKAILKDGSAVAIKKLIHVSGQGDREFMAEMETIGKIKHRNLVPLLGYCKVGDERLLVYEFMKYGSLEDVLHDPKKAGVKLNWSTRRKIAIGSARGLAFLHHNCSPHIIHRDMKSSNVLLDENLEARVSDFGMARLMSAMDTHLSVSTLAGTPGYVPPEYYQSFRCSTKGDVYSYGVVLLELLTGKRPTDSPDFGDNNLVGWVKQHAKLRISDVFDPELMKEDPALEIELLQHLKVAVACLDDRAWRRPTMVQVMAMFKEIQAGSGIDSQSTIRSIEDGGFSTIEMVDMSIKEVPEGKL
# Details: for recognition of steroid ligand by BRI1: known behaviour, explained from the co-crystal structure (alkyl side chain pocket, B-ring contacts)
SMILES,"affinity of binding to BRI1 (stated in words, no method or figure given)",recognition of steroid ligand by BRI1
CC(C)[C@H](C)[C@@H](O)[C@H](O)[C@@H](C)[C@H]1CC[C@H]2[C@@H]3COC(=O)[C@H]4C[C@H](O)[C@H](O)C[C@]4(C)[C@H]3CC[C@]12C [brassinolide],nanomolar,–
CC(C)[C@H](C)[C@@H](O)[C@H](O)[C@@H](C)[C@H]1CC[C@H]2[C@@H]3CC(=O)[C@H]4C[C@H](O)[C@H](O)C[C@]4(C)[C@H]3CC[C@]12C [castasterone],–,tolerated by BRI1
C[C@H]([C@H](O)CCC(C)(C)O)[C@H]1CC[C@@]2(O)C3=CC(=O)[C@@H]4C[C@@H](O)[C@@H](O)C[C@]4(C)[C@H]3CC[C@]12C [ecdysone],–,cannot be recognized by BRI1
